Measured values as given in patent US4843087A (priority 1986, dated 1989).
≈ marks a conversion by molar mass, not a printed value.

What was measured:
[1] = test system: Polio 2; assay: microbe, parasite or virus in culture; assay type: cell-based, poliovirus; conditions: Enterovirus C, HeLa, read-out: Polio 2 MIC
[2] = test system: human rhinovirus (HRV) serotypes; assay: microbe, parasite or virus in culture; assay type: cell-based; conditions: for MIC50: read-out: Rhinovirus MIC50; for IC (MIC80 of serotype panel): read-out: Rhinovirus MIC80

## Cc1cc(CCCCOc2ccc(C3=NCCO3)cc2)on1 [21 (b), 5-{4-[4-(4,5-Dihydro-2-oxazolyl)phenoxy]butyl}-3-methylisoxazole]
[1]
  MIC: 0.5 µg/mL (≈ 1.66 µM)

## Cc1cc(CCCCCCCOc2ccc(-c3ncco3)cc2)on1 [87(b), 3-Methyl-5-{7-[4-(2-oxazolyl)phenoxy]heptyl}isoxazole]
[1]
  MIC: 0.04 µg/mL (≈ 0.118 µM)

## Cc1cc(CCC2CCC(COc3ccc(C4=NCCO4)cc3)CC2)on1 (stereo not drawn) [101 (b), 5-{2-[4-[[4-(4,5-Dihydro-2-oxazolyl)phenoxy]methyl]cyclohexyl]ethyl}-3-methylisoxazole]
[1]
  MIC: 0.65 µg/mL (≈ 1.76 µM)

## OCc1cc(CCCCCCCOc2ccc(C3=NCCO3)cc2)on1 [Example 11, 5-{7-[4-(4,5-Dihydro-2-oxazolyl)phenoxy]heptyl}-3-isoxazolemethanol]
[1]
  MIC: 0.02 µg/mL (≈ 0.0558 µM)

## Cc1cc(C(O)CCCCCCOc2ccc(C3=NCCO3)cc2)on1 (stereo not drawn) [Example 12, α-{6-[4-(4,5-dihydro-2-oxazolyl)phenoxy]hexyl}-3-methyl-5-isoxazolemethanol]
[1]
  MIC: 0.08 µg/mL (≈ 0.223 µM)

## Cc1cc(CCCCCCCOc2ccc(C3=N[C@@H](C(C)C)CO3)cc2)on1 [Example 126, (S)-5-{7-[4-(4,5-Dihydro-4-isopropyl-2-oxazolyl)phenoxy]heptyl}-3-methylisoxazole]
[2]
  MIC50: 1.23 µg/mL (≈ 3.2 µM)
  IC (MIC80 of serotype panel): 26.2 µg/mL

## Cc1cc(CCCCCCCOc2ccc(C3=N[C@H](C(C)C)CO3)cc2)on1 [Example 127, (R)-5-{7-[4-(4,5-Dihydro-4-isopropyl-2-oxazolyl)phenoxy]heptyl}-3-methylisoxazole]
[2]
  MIC50: 0.76 µg/mL (≈ 1.98 µM)
  IC (MIC80 of serotype panel): 1.4 µg/mL

## CCC[C@H]1COC(c2ccc(OCCCCCCCc3cc(C)no3)cc2)=N1 [Example 128, (S)-5-{7-[4-(4,5-Dihydro-4-propyl-2-oxazolyl)phenoxy]heptyl}-3-methylisoxazole]
[2]
  MIC50: 0.245 µg/mL (≈ 0.637 µM)
  IC (MIC80 of serotype panel): 27.1 µg/mL

## CCC[C@@H]1COC(c2ccc(OCCCCCCCc3cc(C)no3)cc2)=N1 [Example 129, (R)-5-{7-[4-(4,5-Dihydro-4-propyl-2-oxazolyl)phenoxy]heptyl}-3-methylisoxazole]
[2]
  MIC50: 1.33 µg/mL (≈ 3.46 µM)
  IC (MIC80 of serotype panel): 2.6 µg/mL

## CCCC[C@H]1COC(c2ccc(OCCCCCCCc3cc(C)no3)cc2)=N1 [Example 130, (S)-5-{7-[4-(4-Butyl-4,5-dihydro-2-oxazolyl)phenoxy]heptyl}-3-methylisoxazole]
[2]
  MIC50: 1.08 µg/mL (≈ 2.71 µM)
  IC (MIC80 of serotype panel): 2.07 µg/mL

## CCCC[C@@H]1COC(c2ccc(OCCCCCCCc3cc(C)no3)cc2)=N1 [Example 131, (R)-5-{7-[4-(4-Butyl-4,5-dihydro-2-oxazolyl)phenoxy]heptyl}-3-methylisoxazole]
[2]
  MIC50: 1.44 µg/mL (≈ 3.61 µM)
  IC (MIC80 of serotype panel): 2.38 µg/mL

## CCCCCCc1cc(CCOc2ccc(C3=N[C@@H](C)CO3)cc2)on1 [Example 132, (S)-5-{2-[4-(4,5-Dihydro-4-methyl-2-oxazolyl)phenoxy]ethyl}-3-hexylisoxazole]
[2]
  MIC50: 1.02 µg/mL (≈ 2.88 µM)
  IC (MIC80 of serotype panel): 1.9 µg/mL

## Cc1cc(CCCCCOc2c(Cl)cc(C3=NC(CO)CO3)cc2Cl)on1 (stereo not drawn) [Example 138, 5-{5-[2,6-Dichloro-4-(4,5-dihydro-4-hydroxymethyl-2-oxazolyl)phenoxy]pentyl}-3-methylisoxazole]
[2]
  MIC50: 0.2 µg/mL (≈ 0.484 µM)
  IC (MIC80 of serotype panel): 1.2 µg/mL

## C=CCC1COC(c2ccc(OCCCCCCCc3cc(C)no3)cc2)=N1 (stereo not drawn) [Example 139, 5-{7-[4-(4,5-Dihydro-4-(2-propenyl)-2-oxazolyl)phenoxy]heptyl}-3-methylisoxazole]
[2]
  MIC50: 0.795 µg/mL (≈ 2.08 µM)
  IC (MIC80 of serotype panel): 25.9 µg/mL

## Cc1cc(CCCCCCCOc2ccc(C3=NC(CCl)CO3)cc2)on1 (stereo not drawn) [Example 140, 5-{7-[4-(4-Chloromethyl-4,5-dihydro-2-oxazolyl)phenoxy]heptyl}-3-methylisoxazole]
[2]
  MIC50: 0.49 µg/mL (≈ 1.25 µM)
  IC (MIC80 of serotype panel): 26.9 µg/mL

## Cc1cc(CCCCCOc2c(C)cc(C3=NCCO3)c(Cl)c2C)on1 [Example 160, 5-{5-[3-Chloro-4-(4,5-dihydro-2-oxazolyl)-2,6-dimethylphenoxy]pentyl}-3-methylisoxazole]
[2]
  MIC50: 0.24 µg/mL (≈ 0.637 µM)
  IC (MIC80 of serotype panel): 0.4 µg/mL
